The record followed here is PMC7064401 (Journal of molecular microbiology and biotechnology, 2019).

Structures are written as SMILES.

In general, inhibition refers to the relative decrease from the control value, in per cent.

This test deals with BexImpX (Pseudobdellovibrio exovorus, UniProt M4VA25). Kind of test: inhibition of riboflavin uptake in E. coli expressing impX, fluorescence. Type of test: cell-based. As to conditions: read-out: % inhibition at 0.9 mM.

As to `Cc1ncc(C[n+]2csc(CCOP(=O)(O)OP(=O)(O)O)c2C)c(N)n1` [thiamine pyrophosphate], the inhibition at 900 µM was below 5%.

Regarding `NC(=O)c1cccnc1` [nicotinamide], the inhibition at 900 µM is below 5%.
